Values joined by “and” are separate entries in the source; they are usually repeats but may differ in a detail not shown here. Identical values can stand only once. Like-named read-outs stand apart in the source and are kept apart here.
Key:
HIV-1Ba-L = test: Anti-HIV-1 activity in monocyte-derived dendritic cells (reverse transcriptase activity); assay type: cell-based
Experimental: Freshly separated human PBMCs from a single donor were suspended in DPBS at 4×10^6 cells/mL and incubated in a 75 cm^2 cell culture flask for 90 minutes at 37° C., 5% CO2. Non-adherent cells were removed by washing with DPBS. Differentiation to dendritic cells was induced by 7 day incubation in RPMI 1640 medium supplemented with 10% fetal bovine serum, 2 mmol/L L-glutamine, 25 mM HEPES, 100 Units/mL penicllin, 10 μg/mL streptomycin, 50 ng/mL recombinant human granulocyte-macrophage-colony stimulating factor (GM-CSF), and 50 ng/mL recombinant human Interleukin (IL)-4 at 37° C., 5% CO2. The cells were further incubated for two days in the same cytokine cocktail supplemented with 10 ng/mL lipopolysaccharide (LPS). The monocyte-derived dendritic cells were then suspended at 10×10^6 cells/mL in complete medium (RPMI 1640 medium supplemented with 10% fetal bovine serum, 2 mmol/L L-glutamine, 25 mM HEPES, 100 Units/mL penicllin, 10 μg/mL streptomycin) and infected for 2 h at 37 C, 5% CO2 with HIV-1Ba-L at MOI=50-150 TCID50. […] Compound diluted in complete medium was added to cells. After seven days in culture, HIV-1 replication was quantified by measuring HIV-1 reverse transcriptase activity in cell-free supernatants using a standard radioactive tritiated thymidine triphosphate (TTP) polymerization incorporation assay. For each reaction, 1 μL of TTP (1 Ci/mL) was combined with 4 μL of dH2O, 2.5 μL of poly rA and oligo dT (0.5 mg/mL and 1.7 Units/mL, respectively), and 2.5 μL reaction buffer (125 μL 1 mol/L EGTA, 125 μL dH2O, 125 μL 20% Triton X-100, 50 μL 1 mol/L Tris, pH 7.4, 50 μL 1 mol/L DTT, 40 μL 1 mol/L MgCl2), then 10 μL of the resulting mixture was combined with 15 µL of virus-containing supernatant in a round-bottom microtiter plate and the plate incubated at 37° C. in a humidified incubator for 90 minutes. Following incubation, 10 μL of the reaction volume was spotted onto a DEAD filter mat, then washed 5×5 min with 5% sodium phosphate buffer, 2×1 minute in distilled water, 2×1 minute in 70% ethanol, then air dried. The filter mat was incubated with Opti-Fluor O scintillation fluid, and radioactivity quantified using a Wallac 1450 Microbeta Trilux liquid scintillation counter.

human monocytes = test: Toxicity in human monocytes in the absence of viral infection
Experimental: (§1) Fresh human monocytes were infected with the BaL strain of HIV-1 in the presence of test compounds. After seven days in culture, HIV-1 replication was evaluated by measurement of HIV-1 viral capsid protein (p24) in the tissue culture supernatant (Table 7). […] A TI was calculated as described above using TC50 values derived from cell toxicity data in response to test compounds in the absence of viral infection.

HIV-1BaL = test: HIV-1 p24 levels after infection of fresh human monocyte/macrophages; assay type: cell-based
Experimental: Mononuclear cells were isolated from fresh human peripheral blood cells by Ficoll-Hypaque density gradient by centrifugation at 600 g for 30 minutes. Banded peripheral blood mononuclear cells (PBMCs) were aspirated from the resulting interface and washed with phosphate buffered saline by low speed centrifugation. […] Cells were allowed to attach for 2 to 12 h at 37° C., then washed with Dulbecco's phosphate buffered saline (DPBS). Monocyte-macrophage monolayer formation was induced by incubation in growth medium (RPMI 1640 medium supplemented with 10% fetal bovine serum, 2 mmol/L L-glutamine, 100 Units/mL penicllin and 10 μg/mL streptomycin) for 7 days. Residual PBMCs were removed by washing the cell monolayers with DPBS. After washing, test compound diluted in growth medium was added to cells. Immediately following test compound addition, HIV-1 virus was added to the cells at multiplicity of infection (MOI)=0.05-0.10. After 7 days in culture, HIV-1 replication was quantified by ELISA measurement of cell-free HIV-1 viral capsid protein (p24) in the tissue culture supernatant of treated monocyte-macrophage monolayers. ELISA to quantify p24 was performed according to manufacturer's instructions (Perkin Elmer, Waltham, Mass.). The quantity of free HIV-1 p24 antigen in the sample was determined by comparing its absorbance at 490 nm to that of control standards.
as §1

PBMCs = test: PBMC cytotoxicity (XTT); assay type: cell-based, human; details: 7 days
Experimental: Mononuclear cells were isolated from fresh human peripheral blood cells by Ficoll-Hypaque density gradient by centrifugation at 600 g for 30 minutes. Banded peripheral blood mononuclear cells (PBMCs) were aspirated from the resulting interface and washed with phosphate buffered saline by low speed centrifugation. Cell viability was evaluated by Trypan Blue dye exclusion. […] Plates were incubated at 37° C., 5% CO2 for 7 days prior to cytotoxicity evaluation. XTT measurement for cytotoxicity.

HIV-1RF = test: Anti-HIV cytoprotection in CEM-SS cells infected with HIV-1RF (XTT); assay type: cell-based
Experimental: To evaluate whether conjugated protease inhibitors retain the ability to protect against HIV-1 infection, CEM-SS cells infected with the RF strain of HIV-1 were treated with test compounds for six days, and then cell viability was monitored using the tetrazolium dye XTT. […] A value for Therapeutic Index (TI) was calculated as TC50/EC50.

Caco-2 cells = test: Bi-directional permeability in Caco-2 monolayers
Experimental: Absorption properties of various compounds were measured using bi-directional permeability assays in Caco-2 cells. […] The efflux ratio is calculated as the ratio of the Papp(B→A)/Papp(A→B).

HIV-1 HT/92/599 = test: HIV-1 reverse transcriptase activity after infection of fresh human PBMCs; assay type: cell-based; details: read-out: PBMC/HIV-1HT/92/599 EC50 ± SD; seven days, reverse transcriptase activity
Outline: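 PHA-P/IL-2-stimulated fresh human PBMCs infected with HIV-1; supernatant reverse transcriptase activity measured by tritiated TTP incorporation on poly rA/oligo dT, 90 min at 37° C. Toxicity from 7-day uninfected PBMC culture read by XTT; TI = TC50/EC50.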

CYP1A2 = CYP1A2 (Homo sapiens (Human), UniProt P05177); test: CYP450 inhibition in human liver microsomes: CYP1A2; details: read-out: CYP1A2 IC50 Phenacetin; probe substrate phenacetin
[1] = monocyte/macrophages, absence of viral infection
[2] = dendritic cells, first determination, read-out: EC50 First
[3] = dendritic cells, mean of three, read-out: Mean EC50
[4] = dendritic cells, second determination, read-out: EC50 Second
[5] = dendritic cells, third determination, read-out: EC50 Third
[6] = Caco-2 monolayers, apical to basolateral
[7] = seven days, p24, read-out: Monocyte/HIV-1BaL EC50
[8] = six days, XTT, read-out: CEM-SS/HIV-1RF EC50 ± SD

CYP1A2, sequence (P05177 whole entry): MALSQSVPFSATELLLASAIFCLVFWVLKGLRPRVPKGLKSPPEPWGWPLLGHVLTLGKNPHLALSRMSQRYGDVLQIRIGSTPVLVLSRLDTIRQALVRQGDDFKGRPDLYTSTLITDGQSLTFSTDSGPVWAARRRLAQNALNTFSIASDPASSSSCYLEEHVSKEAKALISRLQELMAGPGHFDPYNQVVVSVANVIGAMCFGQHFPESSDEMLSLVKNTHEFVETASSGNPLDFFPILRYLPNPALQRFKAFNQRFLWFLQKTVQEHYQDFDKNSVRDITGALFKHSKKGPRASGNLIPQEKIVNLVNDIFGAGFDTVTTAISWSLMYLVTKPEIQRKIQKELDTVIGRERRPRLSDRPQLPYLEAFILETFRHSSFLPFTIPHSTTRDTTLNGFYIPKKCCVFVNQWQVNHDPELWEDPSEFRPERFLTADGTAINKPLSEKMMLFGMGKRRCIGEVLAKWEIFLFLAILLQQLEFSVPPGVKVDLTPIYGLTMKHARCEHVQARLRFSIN

CC(C)CN(C[C@@H](O)[C@H](Cc1ccccc1)NC(=O)O[C@H]1CO[C@H]2OCC[C@H]21)S(=O)(=O)c1ccc(N)cc1 [Darunavir, reference compound]
EC50 (HIV-1Ba-L; Human immunodeficiency virus 1, Dendritic cell, read-out: EC50 First, dendritic cells, first determination): 2 nM
EC50 (HIV-1Ba-L; Human immunodeficiency virus 1, Dendritic cell, read-out: EC50 Second, dendritic cells, second determination): 3 nM
EC50 (HIV-1Ba-L; Human immunodeficiency virus 1, Dendritic cell, read-out: EC50 Third, dendritic cells, third determination): 3 nM
EC50 (HIV-1Ba-L; Human immunodeficiency virus 1, Dendritic cell, read-out: Mean EC50, dendritic cells, mean of three): 2.7 nM
TC50 (human monocytes; [1]): >200000 nM
EC50 (HIV-1BaL; Human immunodeficiency virus 1, Monocyte, 168 h, read-out: Monocyte/HIV-1BaL EC50, seven days, p24): < 20 nM
XTT (PBMC) TC50 (PBMCs): 328400 nM
EC50 (HIV-1RF; Human immunodeficiency virus 1, CEM-SS, 144 h, read-out: CEM-SS/HIV-1RF EC50 ± SD, six days, XTT): < 0.7 nM
EC50 (HIV-1RF; read-out: CEM-SS/HIV-1RF EC50 ± SD, six days, XTT): < 0.66 nM and 1 nM

COCCOCCOCCOc1ccc(C[C@H](NC(=O)O[C@H]2CO[C@H]3OCC[C@H]32)C(O)CN(CC(C)C)S(=O)(=O)c2ccc(N)cc2)cc1 (some centres unmarked) [mPEG3-O-Darunavir]
EC50 (HIV-1Ba-L; [2]): 0.17 nM
EC50 (HIV-1Ba-L; [3]): 5.9 nM
EC50 (HIV-1Ba-L; [4]): 0.84 nM
EC50 (HIV-1Ba-L; [5]): 16.7 nM
Efflux ratio (B→A/A→B) (Caco-2 cells; Caco-2 monolayers): 32
A→B, ×10^−6 (Caco-2 cells; [6]): 0.51 cm/s
TC50 (human monocytes; [1]): >200000 nM
EC50 (HIV-1BaL; [7]): 1030 ± 1450 nM
XTT (PBMC) TC50 (PBMCs): >400000 nM
EC50 (HIV-1 HT/92/599): 27 ± 6 nM

COCCOCCOCCOCCOCCNc1ccc(S(=O)(=O)N(CC(C)C)CC(O)[C@H](Cc2ccccc2)NC(=O)O[C@H]2CO[C@H]3OCC[C@H]32)cc1 (some centres unmarked) [mPEG5-N-Darunavir]
EC50 (HIV-1Ba-L; [2]): 8 nM
EC50 (HIV-1Ba-L; [3]): 16.7 nM
EC50 (HIV-1Ba-L; [4]): 2 nM
EC50 (HIV-1Ba-L; [5]): 40 nM
Efflux ratio (B→A/A→B) (Caco-2 cells; Caco-2 monolayers): 21
A→B, ×10^−6 (Caco-2 cells; [6]): 1.07 cm/s
TC50 (human monocytes; [1]): >200000 nM
EC50 (HIV-1BaL; [7]): 303 ± 366 nM
XTT (PBMC) TC50 (PBMCs): 223500 nM
EC50 (HIV-1 HT/92/599): < 20 nM and 33 nM

COCCOCCOCCOCCOCCOc1ccc(C[C@H](NC(=O)O[C@H]2CO[C@H]3OCC[C@H]32)C(O)CN(CC(C)C)S(=O)(=O)c2ccc(N)cc2)cc1 (some centres unmarked) [mPEG5-O-Darunavir]
EC50 (HIV-1Ba-L; [2]): 60 nM
EC50 (HIV-1Ba-L; [3]): 56.7 nM
EC50 (HIV-1Ba-L; [4]): 60 nM
EC50 (HIV-1Ba-L; [5]): 50 nM
TC50 (human monocytes; [1]): >200000 nM
EC50 (HIV-1BaL; [7]): 263 ± 155 nM
XTT (PBMC) TC50 (PBMCs): >400000 nM
EC50 (HIV-1 HT/92/599): 90 ± 8 nM

COCCOCCOCCOCCOCCOCCOCCNc1ccc(S(=O)(=O)N(CC(C)C)CC(O)[C@H](Cc2ccccc2)NC(=O)O[C@H]2CO[C@H]3OCC[C@H]32)cc1 (some centres unmarked) [mPEG7-N-Darunavir]
EC50 (HIV-1Ba-L; [2]): 70 nM
EC50 (HIV-1Ba-L; [3]): 63.3 nM
EC50 (HIV-1Ba-L; [4]): 40 nM
EC50 (HIV-1Ba-L; [5]): 80 nM
A→B, ×10^−6 (Caco-2 cells; [6]): 0.32 cm/s
TC50 (human monocytes; [1]): >200000 nM
EC50 (HIV-1BaL; [7]): 577 ± 423 nM
XTT (PBMC) TC50 (PBMCs): 381300 nM
EC50 (HIV-1 HT/92/599): 73 ± 12 nM
EC50 (HIV-1RF; [8]): 14 nM and 11 nM

COCCOC(=O)NC(C(=O)NC(Cc1ccccc1)C(O)CN(Cc1ccc(-c2ccccn2)cc1)NC(=O)C(NC(=O)OC)C(C)(C)C)C(C)(C)C (centres unmarked) [mono-mPEG1-Atazanavir]
EC50 (HIV-1Ba-L; [2]): 0.16 nM
EC50 (HIV-1Ba-L; [3]): 0.183 nM
EC50 (HIV-1Ba-L; [4]): 0.25 nM
EC50 (HIV-1Ba-L; [5]): 0.14 nM
Efflux ratio (B→A/A→B) (Caco-2 cells; Caco-2 monolayers): 26
A→B, ×10^−6 (Caco-2 cells; human, Caco-2): 1.25 cm/s
TC50 (human monocytes): 159100 nM
EC50 (HIV-1BaL; [7]): < 20 nM
EC50 (HIV-1 HT/92/599): < 20 nM
IC50 (CYP1A2): > 25000 nM
EC50 (HIV-1RF; [8]): 2 ± 0.6 nM

COCCOCCOCCOCCOCCOC(=O)NC(C(=O)NC(Cc1ccccc1)C(O)CN(Cc1ccc(-c2ccccn2)cc1)NC(=O)C(NC(=O)OC)C(C)(C)C)C(C)(C)C (centres unmarked) [mono-mPEG5-Atazanavir]
EC50 (HIV-1Ba-L; [2]): 0.15 nM
EC50 (HIV-1Ba-L; [3]): 1.24 nM
EC50 (HIV-1Ba-L; [4]): 3.42 nM
EC50 (HIV-1Ba-L; [5]): 0.14 nM
Efflux ratio (B→A/A→B) (Caco-2 cells; Caco-2 monolayers): 88
A→B, ×10^−6 (Caco-2 cells; human, Caco-2): 0.12 cm/s
TC50 (human monocytes): 120800 nM
EC50 (HIV-1BaL; [7]): 56.6 ± 12.2 nM
IC50 (CYP1A2): > 25000 nM
EC50 (HIV-1RF; [8]): 1 ± 0.6 nM

COCCOCCOCCOCCOCCOCCOC(=O)NC(C(=O)NC(Cc1ccccc1)C(O)CN(Cc1ccc(-c2ccccn2)cc1)NC(=O)C(NC(=O)OC)C(C)(C)C)C(C)(C)C (centres unmarked) [mono-mPEG6-Atazanavir]
EC50 (HIV-1Ba-L; [2]): 0.16 nM
EC50 (HIV-1Ba-L; [3]): 0.2 nM
EC50 (HIV-1Ba-L; [4]): 0.21 nM
EC50 (HIV-1Ba-L; [5]): 0.23 nM
Efflux ratio (B→A/A→B) (Caco-2 cells; Caco-2 monolayers): 68
A→B, ×10^−6 (Caco-2 cells; human, Caco-2): 0.11 cm/s
TC50 (human monocytes): 130200 nM
EC50 (HIV-1BaL; [7]): 43.3 ± 20.4 nM
EC50 (HIV-1 HT/92/599): 108 nM and 117 nM and 60 nM
IC50 (CYP1A2): > 25000 nM

COCCOCCOCCOCCOCCOCCOCCOC(=O)NC(C(=O)NC(Cc1ccccc1)C(O)CN(Cc1ccc(-c2ccccn2)cc1)NC(=O)C(NC(=O)OC)C(C)(C)C)C(C)(C)C (centres unmarked) [mono-mPEG7-Atazanavir]
EC50 (HIV-1Ba-L; [2]): 0.13 nM
EC50 (HIV-1Ba-L; [3]): 4.03 nM
EC50 (HIV-1Ba-L; [4]): 11.7 nM
EC50 (HIV-1Ba-L; [5]): 0.25 nM
Efflux ratio (B→A/A→B) (Caco-2 cells; Caco-2 monolayers): 52
A→B, ×10^−6 (Caco-2 cells; human, Caco-2): 0.10 cm/s
TC50 (human monocytes): 132200 nM
EC50 (HIV-1BaL; [7]): 137 ± 60.1 nM
EC50 (HIV-1 HT/92/599): 163 ± 30 nM
IC50 (CYP1A2): > 25000 nM
EC50 (HIV-1RF; [8]): 30 ± 20 nM

Reference: patent US10806794B2, “Protease inhibitors having enhanced features” (priority 2008, dated 2020)
